According to the NIST ThermoML archive (doi:10.1021/je9000922):
± gives the expanded uncertainty stated by the source.

Settings: 355.65 K; Liquid

- vapor or sublimation pressure: 101.32 ± 3 kPa
SMILES: CC(C)O [propan-2-ol]
